Legend:
[1] = test system: OBA3 (DNA, aptamer) CGGGGCGAAGCGGGTCCCG; test: 1H NMR imino spectra; details: 10 mM MgCl2; 10 mM Na2HPO4/KH2PO4; pH 7.4, 2 equivalents of OTB
[2] = test system: OBA1 (DNA, aptamer) CGGGGTGAAACGGGTCCCG; test: 1H NMR imino spectra; details: 10 mM MgCl2; 10 mM Na2HPO4/KH2PO4; pH 7.4, 2 equivalents of OTB
[3] = test system: OBAwt (DNA, aptamer) GGGGTGAAACGGGTCCCG; test: 1H NMR imino titration; details: 10 mM Mg2+; 10 mM Na2HPO4/KH2PO4; pH 7.4, 288 K, 0.1 mM aptamer
[4] = test system: OBA2 (DNA, aptamer) GGGGCGAAGCGGGTCCCG; test: 1H NMR imino spectra; details: 10 mM MgCl2; 10 mM Na2HPO4/KH2PO4; pH 7.4, 2 equivalents of OTB
[5] = test system: OBA3 (DNA, aptamer) CGGGGCGAAGCGGGTCCCG; test: fluorescence polarization (OTA intrinsic fluorescence); details: 10 mM MgCl2; 10 mM Na2HPO4/KH2PO4; pH 7.4, room temperature, 500 nM OTA titrated with aptamer
[6] = test system: OBAwt-I13 (DNA, aptamer, inosine at 13) GGGGTGAAACGGGTCCCG; test: inosine substitution (Figure S1); details: 10 mM MgCl2; 10 mM Na2HPO4/KH2PO4; pH 7.4
[7] = test system: OBA4 (DNA, aptamer) GGGGTGAAACGGTCCCG; test: not stated for this variant (Figure S2); details: 10 mM MgCl2; 10 mM Na2HPO4/KH2PO4; printed NB (no binding); pH 7.4
[8] = test system: OBAwt-I6 (DNA, aptamer, inosine at 6) GGGGTGAAACGGGTCCCG; test: inosine substitution (Figure S1); details: 10 mM MgCl2; 10 mM Na2HPO4/KH2PO4; pH 7.4
[9] = test system: OBA6 (DNA, aptamer) GCGGGGCGAAGCGGGTCCCGC; test: fluorescence polarization (OTA intrinsic fluorescence); details: 10 mM MgCl2; 10 mM Na2HPO4/KH2PO4; pH 7.4, room temperature, 500 nM OTA titrated with aptamer
[10] = test system: OBA5 (DNA, aptamer) CCGGGGCGAAGCGGGTCCCGG; test: as above; details: 10 mM MgCl2; 10 mM Na2HPO4/KH2PO4; pH 7.4, room temperature, 500 nM OTA titrated with aptamer
[11] = test system: OBAwt-I4 (DNA, aptamer, inosine at 4) GGGGTGAAACGGGTCCCG; test: inosine substitution (Figure S1); details: 10 mM MgCl2; 10 mM Na2HPO4/KH2PO4; pH 7.4
[12] = test system: OBA1 (DNA, aptamer) CGGGGTGAAACGGGTCCCG; test: fluorescence polarization (OTA intrinsic fluorescence); details: 10 mM MgCl2; 10 mM Na2HPO4/KH2PO4; pH 7.4, room temperature, 500 nM OTA titrated with aptamer
[13] = test system: OBAwt-I1 (DNA, aptamer, inosine at 1) GGGGTGAAACGGGTCCCG; test: inosine substitution (Figure S1); details: 10 mM MgCl2; 10 mM Na2HPO4/KH2PO4; pH 7.4
[14] = test system: OBA2 (DNA, aptamer) GGGGCGAAGCGGGTCCCG; test: fluorescence polarization (OTA intrinsic fluorescence); details: 10 mM MgCl2; 10 mM Na2HPO4/KH2PO4; pH 7.4, room temperature, 500 nM OTA titrated with aptamer
[15] = test system: OBAwt-I2 (DNA, aptamer, inosine at 2) GGGGTGAAACGGGTCCCG; test: inosine substitution (Figure S1); details: 10 mM MgCl2; 10 mM Na2HPO4/KH2PO4; pH 7.4
[16] = test system: OBAwt-I12 (DNA, aptamer, inosine at 12) GGGGTGAAACGGGTCCCG; test: inosine substitution (Figure S1); details: 10 mM MgCl2; 10 mM Na2HPO4/KH2PO4; pH 7.4
[17] = test system: OBAwt-I11 (DNA, aptamer, inosine at 11) GGGGTGAAACGGGTCCCG; test: inosine substitution (Figure S1); details: 10 mM MgCl2; 10 mM Na2HPO4/KH2PO4; pH 7.4
[18] = test system: OBAwt-I3 (DNA, aptamer, inosine at 3) GGGGTGAAACGGGTCCCG; test: inosine substitution (Figure S1); details: 10 mM MgCl2; 10 mM Na2HPO4/KH2PO4; pH 7.4
[19] = test system: OBAwt (DNA, aptamer) GGGGTGAAACGGGTCCCG; test: fluorescence polarization (OTA intrinsic fluorescence); details: 10 mM MgCl2; 10 mM Na2HPO4/KH2PO4; pH 7.4, room temperature, 500 nM OTA titrated with aptamer
[20] = test system: OBA3 (DNA, aptamer) CGGGGCGAAGCGGGTCCCG; test: solution NMR structure; details: 10 mM MgCl2; 10 mM Na2HPO4/KH2PO4; pH 7.4, 288-310 K

binding [1] | binding [2] | binding [3] | binding [4] | K d [5] [µM] | binding [6] | binding [7] | binding [8] | K d [9] [µM] | K d [10] [µM] | binding [11] | K d [12] [µM] | binding [13] | K d [14] [µM] | binding [15] | binding [16] | binding [17] | binding [18] | K d [19] [µM] | binding [20] | SMILES
weak | weak | no | weak | – | – | – | – | – | – | – | – | – | – | – | – | – | – | – | – | C[C@@H]1Cc2ccc(C(=O)N[C@@H](Cc3ccccc3)C(=O)O)c(O)c2C(=O)O1
– | – | – | – | 1.4 ± 0.1 | no | no | no | 2.4 ± 0.1 | 1.9 ± 0.1 | no | 5.9 ± 0.1 | no | 26.2 ± 0.4 | no | yes | no | no | 81 ± 2 | yes | C[C@@H]1Cc2c(Cl)cc(C(=O)N[C@@H](Cc3ccccc3)C(=O)O)c(O)c2C(=O)O1

Source: publication PMC6582339 (2019)
